This note sets out measurements from US20060229433A1, “Modified antiviral peptides with increased activity and cell membrane affinity” (priority 2003, published 2006).

This data set relates to C8166 cells. Nature of the data set: Toxicity on C8166 cells (daily cell count, trypan-blue exclusion). Type of data set: cell-based. The settings on record: at doses up to 10 μM. The method, then:
Samples of 3×10^5/100 μL C8166 cells were preincubated in 96-well microtiter plates in culture medium containing various concentrations of peptide. After a 1 h treatment at 37° C., 100 μl of diluted viral solution of HIV-1 was added. The cells were exposed to the virus for 1 h at 37° C. at a multiplicity of infection of 1000 TCID50 per ml. The cells were washed three times and cultured at 3×10^5/ml of R10 with the treatment in 24-well plates incubated at 37° C. C8166 culture medium was replaced at Day-4 post-infection. The treatment was permanent before virus adsorption, during virus adsorption and after infection. Assays on C8166 cells have been performed at least twice and in duplicate. Toxicity was evaluated by daily cell count and trypan-blue exclusion assay. Infection of C8166 T-cells with HIV-1 was assessed by virus-induced cytopathic effects (syncytia formation) and by quantification of cell free p24 viral protein in the culture supernatants. Measurements of HIV-1 p24^gag concentration in the culture supernatants were achieved by ELISA (ALLIANCE® HIV-1 p24 kit, Perkin Elmer, life sciences, USA).

Consider `C[C@H](NC(=O)[C@H](CCCNC(=N)N)NC(=O)CNC(=O)[C@@H]1CCCN1C(=O)CN)C(=O)N[C@@H](Cc1ccccc1)C(=O)NCCCC[C@H](NC(=O)[C@H](Cc1ccccc1)NC(=O)[C@H](C)NC(=O)[C@H](CCCNC(=N)N)NC(=O)CNC(=O)[C@@H]1CCCN1C(=O)CN)C(=O)NCCCC[C@H](NC(=O)[C@H](CCCCNC(=O)[C@H](Cc1ccccc1)NC(=O)[C@H](C)NC(=O)[C@H](CCCNC(=N)N)NC(=O)CNC(=O)[C@@H]1CCCN1C(=O)CN)NC(=O)[C@H](Cc1ccccc1)NC(=O)[C@H](C)NC(=O)[C@H](CCCNC(=N)N)NC(=O)CNC(=O)[C@@H]1CCCN1C(=O)CN)C(=O)NCCCC[C@H](NC(=O)[C@H](CCCCNC(=O)[C@H](CCCCNC(=O)[C@H](Cc1ccccc1)NC(=O)[C@H](C)NC(=O)[C@H](CCCNC(=N)N)NC(=O)CNC(=O)[C@@H]1CCCN1C(=O)CN)NC(=O)[C@H](Cc1ccccc1)NC(=O)[C@H](C)NC(=O)[C@H](CCCNC(=N)N)NC(=O)CNC(=O)[C@@H]1CCCN1C(=O)CN)NC(=O)[C@H](CCCCNC(=O)[C@H](Cc1ccccc1)NC(=O)[C@H](C)NC(=O)[C@H](CCCNC(=N)N)NC(=O)CNC(=O)[C@@H]1CCCN1C(=O)CN)NC(=O)[C@H](Cc1ccccc1)NC(=O)[C@H](C)NC(=O)[C@H](CCCNC(=N)N)NC(=O)CNC(=O)[C@@H]1CCCN1C(=O)CN)C(=O)NCCCC(=O)O` [S6, SPC3-(γ-aminobutyric acid)], for which the toxicity on cells entry is “no toxicity”.
